Measurements from US12187720B2, “Compounds for treatment of cancer” (ONCTERNAL THERAPEUTICS, INC., priority 2010, dated 2025).
≈ marks a conversion by molar mass, not a printed value. Where a name gives a salt, the structure may show the parent alone. Read-outs that look alike come from different tables or passages of the source. Each block holds one molecule with its values, some of them ahead of it.

How the values were obtained:
[1] = test system: melanoma and prostate cancer cell lines; test: SRB cytotoxicity, summary or average over melanoma and prostate cancer cell lines; type: cell-based; settings: average of all seven cell lines
[2] = Water solubility, 48 h shaking in water, LC-MS; type: physicochemical
Experimental: Determination of water solubility. […] The suspension was centrifuged at 10,000 rpm for 10 min and filtered on 0.22 μm filter. Concentrations of each compound were measured by LC-MS, consisting of an HP S1100 HPLC instrument (Agilent, Foster ceity, CA) and a Bruker ESQUIRE MS detector with electrospray/ion trap instrument in positive ion mode (Bruker, Fremont, CA). For HPLC, a reverse phase Nova-pak C18 column (150 mm×3.9 mm, Waters, Milford, MA) was used. The mobile phase was composed of 20:80 v/v water/acetonitrile. […] The concentration of each compound was calculated by MS peak area according to the following calibration equation: y=1.3295x+114.24 (R^2=1.00). […] The amount (ng) in each injection was plotted again its relative mass peak area to generate the standard curve in FIG. 17.

[3] = test system: MDA-MB-435; test: SRB cytotoxicity assay, MDA-MB-435 parental melanoma cells; type: cell-based; settings: Homo sapiens, read-out: IC50 ± SEM MDA-MB-435
[4] = test system: MDA-MB-435/LCCMDR1; test: SRB cytotoxicity assay, multidrug-resistant MDA-MB-435/LCCMDR1 melanoma cells; type: cell-based, human; settings: Homo sapiens, read-out: IC50 ± SEM MDA-MB-435/LCC6MDR1
[5] = Metabolic stability in mouse liver microsomes; type: in vitro ADME; settings: mouse, liver microsomes
[6] = Metabolic stability in guinea pig liver microsomes; type: in vitro ADME; settings: pH 7.4, phase I pathway, read-out: T ½ (min), guinea pig liver microsomes
[7] = Metabolic stability in rabbit liver microsomes; type: in vitro ADME; settings: pH 7.4, phase I pathway, read-out: T ½ (min), rabbit liver microsomes
[8] = Metabolic stability in hamster liver microsomes; type: in vitro ADME; settings: pH 7.4, phase I pathway, read-out: T ½ (min), hamster liver microsomes
[9] = test system: MES-SA/DX5; test: SRB growth inhibition assay, P-gp over-expressing MES-SA/DX5 cells; type: cell-based; settings: ratio of IC50 MES-SA/DX5 to MES-SA
[10] = Metabolic stability in human liver microsomes; settings: human, liver microsomes, pH 7.4
[11] = Metabolic stability in monkey liver microsomes; type: in vitro ADME; settings: monkey, pH 7.4
[12] = in vivo; settings: male, ICR, mouse, plasma, 5 mg/kg; for Vd / clearance: iv
[13] = Metabolic stability in dog liver microsomes; type: in vitro ADME; settings: dog, pH 7.4
[14] = Metabolic stability in rat liver microsomes; type: in vitro ADME; settings: rat, liver microsomes, pH 7.4; phase I pathway; read-out: T ½ (min), rat liver microsomes
[15] = test system: Bovine brain tubulin; test: In vitro tubulin polymerization assay (bovine brain tubulin); type: biochemical; settings: 10 μM, 20 min incubation, versus vehicle
[16] = test system: WM-164 melanoma cells; test: Microtubule imaging (immunofluorescence) in WM-164 melanoma cells; type: cell-based, human; settings: 18 h
Description: Primary antibody for tubulin and fluorescence-labeled secondary antibody were subsequently added to the cells. Cell nuclei were stained by DAPI. Whole Cell Stain Green was also applied to all cells. All images were acquired with an Olympus IX71 inverted fluorescence microscope (Olympus Corp., Tokyo, Japan) with overlays from separate images of tubulin (red), nuclei (blue), and whole cells (green).

[17] = test system: WM-164; test: SRB cytotoxicity assay, WM-164 human melanoma cells; type: cell-based; settings: Table 12, 48 h, read-out: IC50 ± SEM WM164 (converted)
[18] = test system: A375; test: SRB cytotoxicity assay, A375 human melanoma cells; type: cell-based; settings: Homo sapiens, A-375, 48 h, Table 12, 48 h; read-out: IC50 ± SEM A375
[19] = test system: B16-F1; test: SRB cytotoxicity assay, B16-F1 mouse melanoma cells; type: cell-based; settings: Table 12, 48 h, read-out: IC50 ± SEM B16-F1 (converted)
[20] = test system: LNCaP; test: SRB cytotoxicity assay, LNCaP prostate cancer cells; type: cell-based, human; settings: Homo sapiens, LNCaP, read-out: inhibitory effects LNCaP
Description: (§1) Cells were stained with SRB solution.

[21] = test system: PC-3; test: SRB cytotoxicity assay, PC-3 prostate cancer cells; type: cell-based, human; settings: Homo sapiens, PC-3, read-out: inhibitory effects PC3
Description: as §1

[22] = test system: DU145/TXR; test: SRB growth inhibition, paclitaxel-resistant DU145/TXR cells; type: cell-based; settings: Homo sapiens, DU-145; Table 13A; read-out: inhibitory effects DU145/TXR
[23] = test system: DU 145; test: SRB cytotoxicity assay, DU 145 prostate cancer cells; type: cell-based; settings: Homo sapiens, read-out: inhibitory effects DU145
Description: as §1

[24] = Brain penetration (brain and plasma concentrations) in nude mice; settings: IP 10 mpk, mean ± SD
[25] = test system: PC-3/TxR tumors; settings: for tumor growth inhibition (TGI): day 1 and 9
[26] = test system: PPC-1; test: SRB cytotoxicity assay, PPC-1 prostate cancer cells; type: cell-based, human; settings: Homo sapiens, PPC-1; Table 13B; read-out: inhibitory effects PPC1
Description: as §1

[27] = pH 7.4, Table 20, read-out: Half life in Mouse liver microsome
[28] = pH 7.4, phase I pathway, read-out: T ½ (min), mouse liver microsomes
[29] = liver microsomes, phase I pathway, read-out: T ½ (min), monkey liver microsomes
[30] = monkey liver microsomes, Table 20, read-out: Half life in Monkey liver microsome
[31] = dog liver microsomes, Table 20, read-out: Half life in Dog liver microsome
[32] = liver microsomes, phase I pathway, read-out: T ½ (min), dog liver microsomes
[33] = PC-3/TxR xenograft, IV 10 mpk, day 1 and 9, end point day 19

Compound: COc1cc(C(=O)c2c[nH]c(-c3ccc(N(C)C)cc3)n2)cc(OC)c1OC [12ga, (2-(4-(dimethylamino)phenyl)-1H-imidazol-4-yl)(3,4,5-trimethoxyphenyl)methanone]
IC50 [1]: 131 nM | water solubility, times greater than thiazole counterpart [2]: about 200 times | solubility at 48 h ([2]; thermodynamic from solid, water, 48 h, RT): 13 µg/mL (≈ 34.1 µM)

Compound: CCc1[nH]c(Cc2cc(OC)c(OC)c(OC)c2)nc1-c1ccccc1 [102c, 5-ethyl-4-phenyl-2-(3,4,5-trimethoxybenzyl)-1H-imidazole]
IC50 ([3]; Table 14C): > 50 µM | IC50 ([4]; Table 14C): > 50 µM

Compound: CCCc1[nH]c(Cc2cc(OC)c(OC)c(OC)c2)nc1-c1ccccc1 [102d, 4-phenyl-5-propyl-2-(3,4,5-trimethoxybenzyl)-1H-imidazole]
IC50 ([3]; Table 14C): 11 µM | IC50 ([4]; Table 14C): 15.9 µM

Compound: c1cc2ccc(-c3ccc4[nH]ccc4c3)cc2c(-c2ccc3[nH]ccc3c2)n1 [6b, 1,7-Bis-(1H-indol-5-yl)-isoquinoline]
half-life at 0.5 μM [5, 27]: 10 min | half-life at 0.5 μM [5, 28]: 10 min | half-life at 0.5 μM [6]: 15 min | half-life at 0.5 μM [7]: 16 min | half-life at 0.5 μM [8]: 11 min | Resistance factor [9]: 1.4 | half-life at 0.5 μM [10]: 40 min | half-life at 0.5 μM [11, 29]: 13 min | half-life at 0.5 μM [11, 30]: 13 min | AUC ([12]; ip): 3630 ng·h/mL | Cmax ([12]; ip): 1500 ng/mL | bioavailability ([12]; ip): 60% | Vd [12]: 1.1 L/kg | clearance [12]: 14 mL/min/kg | AUC ([12]; po): 117 ng·h/mL | Cmax ([12]; po): 50 ng/mL | bioavailability ([12]; po): 2.1% | half-life at 0.5 μM [13, 31]: 30 min | half-life at 0.5 μM [13, 32]: 30 min | half-life at 0.5 μM [14]: 9 min

Compound: COc1cc(C(=O)c2cccc(-c3ccccc3)n2)cc(OC)c1OC [1c, (6-Phenylpyridin-2-yl)(3,4,5-trimethoxyphenyl)methanone]
inhibition of tubulin polymerization [15]: 64%

Compound: COc1ccc(S(=O)(=O)Nc2cccnc2Nc2ccc(O)cc2)cc1 [ABT-751, reference compound]
effect on microtubules [16]: microtubule fragmentation

half-life at 0.5 μM [5, 27]: 13 min | half-life at 0.5 μM [5, 28]: 13 min | half-life at 0.5 μM [6]: 8 min | half-life at 0.5 μM [7]: 16 min | half-life at 0.5 μM [8]: 20 min | half-life at 0.5 μM [10]: 47 min | half-life at 0.5 μM [11, 29]: 9 min | half-life at 0.5 μM [11, 30]: 9 min | AUC ([12]; ip): 917 ng·h/mL | Cmax ([12]; ip): 1100 ng/mL | bioavailability ([12]; ip): 33% | Vd [12]: 1.8 L/kg | clearance [12]: 30 mL/min/kg | AUC ([12]; po): 66.7 ng·h/mL | Cmax ([12]; po): 50 ng/mL | bioavailability ([12]; po): 2.7% | half-life at 0.5 μM [13, 31]: 29 min | half-life at 0.5 μM [13, 32]: 29 min | half-life at 0.5 μM [14]: 14 min
Compound: Fc1ccc(-c2nccc3ccc(-c4ccc5[nH]ccc5c4)cc23)cc1 [6c, 1-(4-Fluoro-phenyl)-7-(1H-indol-5-yl)-isoquinoline]

water solubility ([2]; water, 48 h, RT): 72 ng/mL (≈ 0.181 µM)
Compound: COc1cc(C(=O)c2csc(-c3ccc(N(C)C)cc3)n2)cc(OC)c1OC [corresponding thiazole analog]

Compound: COc1cc(-c2nc(C(=O)c3ccc(F)cc3)c[nH]2)cc(OC)c1OC [12eb, (4-fluorophenyl)(2-(3,4,5-trimethoxyphenyl)-1H-imidazol-4-yl)methanone]
IC50 ([17]; Homo sapiens, WM164, 48 h): > 10000 nM | IC50 [18]: > 10 µM | IC50 ([19]; Mus musculus, B16-F1, 48 h): > 10000 nM

IC50 [22]: 63 nM
Compound: COc1cc(C(=O)c2nc(-c3ccc(Br)cc3)c[nH]2)cc(OC)c1OC [70d, (4-(4-bromophenyl)-1H-imidazol-2-yl)(3,4,5-trimethoxyphenyl)methanone]
IC50 ([20]; Table 13A): 0.015 µM | IC50 ([21]; Table 13A): 0.033 µM | IC50 ([23]; Table 13A): 0.066 µM

Compound: CC(=O)O[C@@]12CO[C@@H]1C[C@H](O)[C@@]1(C)C(=O)[C@H](O)C3=C(C)[C@@H](OC(=O)[C@H](O)[C@@H](NC(=O)OC(C)(C)C)c4ccccc4)C[C@@](O)([C@@H](OC(=O)c4ccccc4)[C@H]21)C3(C)C [docetaxel, Docetaxel]
Brain ([24]; 1 hr): 33 ± 14 ng/mL | Plasma ([24]; 1 hr): 768 ± 92 ng/mL | Brain ([24]; 4 hr): 20 ± 9 ng/mL | Plasma ([24]; 4 hr): 345 ± 94 ng/mL | TGI [25, 33]: 14% | Tumor size End [25, 33]: 1774 ± 183 mm^3 | TGI ([25]; PC-3/TxR xenograft, IV 20 mpk, day 1 and 9, end point day 19): 56% | tumor growth inhibition (TGI) ([25]; i.v. 10 mg/kg): 14% | tumor growth inhibition (TGI) ([25]; i.v. 20 mg/kg): 56%

Compound: Cc1ccc(-c2nc(C(=O)c3ccc(F)cc3)c[nH]2)cc1 [12db-HCl, (4-fluorophenyl)(2-(p-tolyl)-1H-imidazol-4-yl)methanone hydrochloride]
IC50 ([17]; hydrochloride): 112 nM | IC50 ([19]; hydrochloride): 297 nM

Compound: O=C(c1ccccc1)c1nc(-c2ccccc2)c[nH]1 [70aa, phenyl-(4-phenyl-1H-imidazol-2-yl)methanone]
IC50 ([20]; Table 13B): > 50 µM | IC50 ([3]; Table 14D): > 50 µM | IC50 ([4]; Table 14D): > 50 µM | IC50 ([21]; Table 13B): > 50 µM | IC50 [26]: > 50 µM | IC50 ([23]; Table 13B): > 50 µM

Compound: COc1cc(-c2nccc3ccc(-c4ccc5[nH]ccc5c4)cc23)cc(OC)c1OC [6a]
half-life at 0.5 μM [5, 27]: 3.43 min | half-life at 0.5 μM [5, 28]: 3.4 min | half-life at 0.5 μM [6]: 15 min | half-life at 0.5 μM [7]: 17 min | half-life at 0.5 μM [8]: 6 min | Resistance factor [9]: 1.5 | half-life at 0.5 μM [10]: 32 min | half-life at 0.5 μM [11, 29]: 16 min | half-life at 0.5 μM [11, 30]: 16 min | AUC ([12]; ip): 983 ng·h/mL | Cmax ([12]; ip): 678 ng/mL | bioavailability ([12]; ip): 60% | Vd [12]: 2.3 L/kg | clearance [12]: 51 mL/min/kg | AUC ([12]; po): 83.3 ng·h/mL | Cmax ([12]; po): 6.7 ng/mL | bioavailability ([12]; po): 5% | half-life at 0.5 μM [13, 31]: 13 min | half-life at 0.5 μM [13, 32]: 13 min | half-life at 0.5 μM [14]: 12 min

Compound: COc1cc(C(=O)c2nc(-c3cc(OC)c(OC)c(OC)c3)c[nH]2)cc(OC)c1OC [70q, 3,4,5-trimethoxyphenyl-(4-(3,4,5-trimethoxyphenyl)-1H-imidazol-2-yl)methanone]
IC50 ([20]; Table 13B): > 50 µM | IC50 ([3]; Table 14D): 0.149 µM | IC50 ([4]; Table 14D): 0.211 µM | IC50 ([21]; Table 13B): > 50 µM | IC50 [26]: > 50 µM | IC50 ([23]; Table 13B): > 50 µM
